Source: patent US20250388575A1, “HETEROBIFUNCTIONAL COMPOUNDS AND METHODS OF TREATING DISEASE” (Halda Therapeutics OpCo, Inc., priority 2022, published 2025)

Experiments:
androgen receptor = androgen receptor (Homo sapiens, UniProt P10275); assay: Assay for binding affinity to androgen receptor ([3H]methyltrienolone radioligand, cell cytosol); conditions: binding to the androgen receptor, 1 nM [3H]methyltrienolone, 24 hr at 4° C.
Method: Fractions of cell cytosol (106 cell/point) were incubated for 24 hr at 4° C. with 1 nM [^3H]methyltrienolone in the absence or presence of the test compound in a buffer containing 25 mM Hepes-Tris (pH 7.4), 1 mM EDTA, 10 mM Na2MoO4, 2 mM DTT, 5 µM triamcinolone acetonide, and 10% glycerol. Nonspecific binding was determined in the presence of 1 μM testosterone. Following incubation, the samples were filtered rapidly under vacuum through glass fiber filters (GF/B, Packard) presoaked with 0.3% PEI and rinsed several times with ice-cold 50 mM Tris-HCl using a 96-sample cell harvester (Unifilter, Packard). The filters were dried then counted for radioactivity in a scintillation counter (Topcount, Packard) using a scintillation cocktail (Microscint 0, Packard). The results are expressed as a percent inhibition of the control radioligand specific binding. The standard reference compound is testosterone, which is tested in each experiment at several concentrations to obtain a competition curve from which its IC50 is calculated.

[1] = test system: T-Rex 293 cell line SC cells lacking increased expression of progesterone receptor isoform B protein; assay: Cellular growth inhibition, T-Rex 293 SC cells lacking increased progesterone receptor isoform B expression (no doxycycline), CellTiter-Glo; assay type: cell-based; conditions: T-Rex 293 SC cells not exposed to doxycycline, 72 hours
Method: The following types of cells were prepared for this experiment: (i) a T-Rex 293 cell line having increased expression of progesterone receptor isoform B protein due to exposure to doxycycline and (ii) a T-Rex 293 cell line lacking increased expression of progesterone receptor isoform B protein. Ability of the test compounds to inhibit proliferation of the foregoing cell types was evaluated according to the procedures set forth below.
The doxycycline-inducible progesterone receptor isoform B protein expressing cell line was established using the following protocol: T-Rex 293 cells were purchased from Invitrogen (Cat #R71007) and transfected using Lipofectamine 2000 with the wild-type progesterone receptor B protein sequence cloned into the pcDNA4/TO vector. Transfected cells were selected using 400 μg/mL Zeocin (Invitrogen Cat #R25001). Following selection, single clones were raised and maintained in Dulbecco's Modified Eagle Medium (DMEM) supplemented with 10% w/w Tetracycline-free fetal bovine serum (FBS) and 250 μg/mL Zeocin. Clones were analyzed for expression of progesterone receptor isoform B protein in the presence and absence of 10 ng/ml doxycycline (Sigma Cat #D9891), and a single doxycycline-inducible clone (hereinafter “SC”) was selected for use in downstream assays.
The SC cells were seeded on poly-D-lysine coated, black clear-bottom 384-well plates at 2500/well, in 25 μL Phenol Red Free Dulbecco's Modified Eagle Medium (DMEM) supplemented with 10% w/w charcoal-dextran treated fetal bovine serum (FBS) and 1% w/w pen-strep, with or without 10 ng/mL doxycycline. Pen-Strep is a commercially available mixture of penicillin G and streptomycin, which is used in mammalian cell culture media to prevent bacterial contamination. Phenol Red Free Dulbecco's Modified Eagle Medium (DMEM) supplemented with 10% w/w charcoal-dextran treated fetal bovine serum (FBS) and 1% w/w pen-strep, with or without 10 ng/mL doxycycline is herein referred to as Treatment Medium. Following seeding of cells in the plates, the plates were spun at 300×g for 30 seconds, then equilibrated to room temperature for 30 minutes, and then deposited in a humidified tissue culture incubator maintained at 37° C. with 5% CO2.
At 24 hours after seeding of the cells, dilutions of test compound were prepared in DMSO and dissolved in Treatment Medium, to achieve a final DMSO concentration of 0.5% w/w, thereby providing the Test Compound Solution. A 25 μL aliquot of the Test Compound Solution was added to cells in the well plates. An equal volume of a solution containing DMSO and Treatment Medium was used as a negative control. Following treatment of cells with Test Compound Solution or said equal volume of a solution containing DMSO and Treatment Medium, the plates were spun at 300×g for 30 seconds, and then left in an incubator for 72 hours.
At the end of the treatment duration, cell viability was quantified with CellTiter-Glo 2.0 reagent (Promega Cat #G9243). For this purpose, plates were equilibrated to room temperature for 30 minutes, and then 25 μL of CellTiter-Glo 2.0 reagent was added to cells in the plate wells. Plates were then agitated on a shaker for two minutes at 500 rpm and subsequently incubated at room temperature for 10 minutes. Following incubation, the plates were spun at 3000×g for 30 seconds, then sealed with an optical adhesive cover, and luminescence readings were measured with an EnVision Plate Reader (Perkin Elmer).
Data was normalized using zero luminescence for baseline. A four-parameter non-linear regression curve fit was applied to dose-response data in GraphPad Prism data analysis software to determine the half-maximal growth inhibitory concentration (GI50) for each test compound.

[2] = molecular target: progesterone receptor ligand binding domain (LBD) (Homo sapiens (Human), UniProt P06401); assay: FP assay for binding affinity to progesterone receptor (PolarScreen Progesterone Receptor Competitor Assay); conditions: GST-tagged PR LBD, Fluormone tracer, fluorescence polarization, 2 hours at room temperature
Method: Compounds were tested using the PolarScreen™ Progesterone Receptor Competitor Assay Kit (Life Technologies Cat #A15905 or a15906), as per the manufacturer's instructions. Briefly, GST-tagged PR LBD, Fluormone tracer, and compound were mixed and incubated for 2 hours at room temperature in the dark. Following incubation, the plates were spun at 3000×g for 30 seconds, then sealed with an optical adhesive cover, and fluorescence polarization was measured using appropriate excitation and emission filters with an EnVision Plate Reader (Perkin Elmer). Compound concentration vs. mP value were plotted in Prism (GraphPad). A four-parameter non-linear regression curve fit was applied to dose-response data to determine the half-maximal inhibitory concentration (IC50) for each test compound.

progesterone receptor = progesterone receptor (Homo sapiens, UniProt P06401); assay: PR Human Progesterone NHR Binding (Agonist Radioligand) Assay, [3H]progesterone, T47D cytosol; conditions: 0.5 nM [3H]progesterone, T47D cytosolic fractions, 1 hour at 4° C., legend words it as Kd
Method: Compounds were tested using the PR Human Progesterone NHR Binding (Agonist Radioligand) Assay, Cerep at Eurofins Discovery using a modified version of the protocol from Sarup et al. (Cancer Res 1988; 48:5071-5078). Briefly, cytosolic fractions of T47D cells were incubated with 0.5 nM [^3H]progesterone for 1 hour at 4° C. in the absence or presence of the test compound. Nonspecific binding was determined in the presence of 1 μM promegestone. Reactions were subjected to scintillation counting. Results are expressed as a percent inhibition of the control radioligand specific binding.

Chain of progesterone receptor ligand binding domain (LBD) (P06401 679-913): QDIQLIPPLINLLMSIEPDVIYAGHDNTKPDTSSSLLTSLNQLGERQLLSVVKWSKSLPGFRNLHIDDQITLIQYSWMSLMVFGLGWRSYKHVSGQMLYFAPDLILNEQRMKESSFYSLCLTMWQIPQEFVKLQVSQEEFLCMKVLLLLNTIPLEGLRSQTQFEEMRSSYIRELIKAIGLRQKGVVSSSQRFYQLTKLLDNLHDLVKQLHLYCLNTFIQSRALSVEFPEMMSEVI
Chain of progesterone receptor (P06401 whole entry, looked up): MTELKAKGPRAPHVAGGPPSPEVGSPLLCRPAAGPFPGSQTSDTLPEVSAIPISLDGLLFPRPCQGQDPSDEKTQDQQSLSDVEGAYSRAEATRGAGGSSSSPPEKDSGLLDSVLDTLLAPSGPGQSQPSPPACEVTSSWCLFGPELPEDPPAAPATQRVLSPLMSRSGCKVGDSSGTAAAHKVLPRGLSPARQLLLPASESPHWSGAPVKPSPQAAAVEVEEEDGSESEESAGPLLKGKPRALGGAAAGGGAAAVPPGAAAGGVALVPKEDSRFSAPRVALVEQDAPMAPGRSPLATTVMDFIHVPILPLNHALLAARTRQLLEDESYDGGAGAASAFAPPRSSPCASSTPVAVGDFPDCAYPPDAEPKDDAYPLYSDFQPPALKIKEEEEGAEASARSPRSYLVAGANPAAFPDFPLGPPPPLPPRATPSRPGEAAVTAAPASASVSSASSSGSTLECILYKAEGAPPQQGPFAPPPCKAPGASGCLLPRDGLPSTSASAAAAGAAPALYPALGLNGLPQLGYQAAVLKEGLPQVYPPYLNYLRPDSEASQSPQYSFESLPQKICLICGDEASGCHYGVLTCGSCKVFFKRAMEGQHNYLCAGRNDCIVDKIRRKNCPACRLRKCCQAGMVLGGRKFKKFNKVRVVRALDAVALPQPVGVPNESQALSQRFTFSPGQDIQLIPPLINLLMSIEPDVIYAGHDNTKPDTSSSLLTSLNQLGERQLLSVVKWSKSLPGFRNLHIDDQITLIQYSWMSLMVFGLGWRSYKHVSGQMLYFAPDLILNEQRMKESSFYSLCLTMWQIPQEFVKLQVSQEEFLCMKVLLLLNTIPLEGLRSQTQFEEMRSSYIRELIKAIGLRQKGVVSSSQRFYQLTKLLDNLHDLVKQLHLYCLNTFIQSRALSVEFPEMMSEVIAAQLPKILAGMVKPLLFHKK
Chain of androgen receptor (P10275 whole entry, looked up): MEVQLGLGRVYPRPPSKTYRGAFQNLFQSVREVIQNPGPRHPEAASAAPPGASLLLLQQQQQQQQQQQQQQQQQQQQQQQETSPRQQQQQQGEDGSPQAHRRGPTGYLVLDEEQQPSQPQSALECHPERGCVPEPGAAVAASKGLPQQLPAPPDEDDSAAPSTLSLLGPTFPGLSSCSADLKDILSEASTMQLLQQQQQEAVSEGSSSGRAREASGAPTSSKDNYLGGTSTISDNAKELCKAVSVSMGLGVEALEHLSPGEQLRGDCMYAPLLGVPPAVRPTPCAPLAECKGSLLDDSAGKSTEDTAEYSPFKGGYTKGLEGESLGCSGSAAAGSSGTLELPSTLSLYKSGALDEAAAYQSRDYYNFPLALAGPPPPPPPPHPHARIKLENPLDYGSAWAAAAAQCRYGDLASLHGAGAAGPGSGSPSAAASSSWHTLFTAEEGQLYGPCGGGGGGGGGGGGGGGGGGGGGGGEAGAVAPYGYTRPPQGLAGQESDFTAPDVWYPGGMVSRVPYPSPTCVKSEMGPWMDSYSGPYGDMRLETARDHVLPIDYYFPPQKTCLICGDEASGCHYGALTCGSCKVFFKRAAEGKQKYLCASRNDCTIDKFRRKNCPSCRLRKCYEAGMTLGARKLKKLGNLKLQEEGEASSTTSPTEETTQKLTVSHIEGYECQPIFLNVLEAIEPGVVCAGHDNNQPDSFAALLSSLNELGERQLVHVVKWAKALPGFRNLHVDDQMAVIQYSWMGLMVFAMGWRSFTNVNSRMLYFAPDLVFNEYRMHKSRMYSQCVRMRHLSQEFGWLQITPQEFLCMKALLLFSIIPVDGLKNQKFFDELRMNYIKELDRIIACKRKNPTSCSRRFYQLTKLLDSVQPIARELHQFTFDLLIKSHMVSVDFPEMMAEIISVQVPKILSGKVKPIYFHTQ

IC50 [2] [nM]	SMILES	GI50 [1] [nM]	also measured
	Cn1cc(-c2cc(C(C)(C)O)ccc2Oc2ccc(CCC3CCN(c4ccc(C(=O)N[C@H]5CC[C@H](Oc6ccc(C#N)c(Cl)c6)CC5)nn4)CC3)cc2)c2cc[nH]c2c1=O [I-102]	< 500	Kd (androgen receptor): 50 to 500 nM
500 to 2500	Cn1cc(-c2cc(C(C)(C)O)ccc2O[C@H]2C[C@H](N(C)CC3CCN(c4ccc(C(=O)N[C@H]5CC[C@H](Oc6ccc(C#N)c(Cl)c6)CC5)nn4)CC3)C2)c2cc[nH]c2c1=O [I-158, N-((1r,4r)-4-(3-chloro-4-cyanophenoxy)cyclohexyl)-6-(4-((((1r,3r)-3-(4-(2-hydroxypropan-2-yl)-2-(6-methyl-7-oxo-6,7-dihydro-1H-pyrrolo[2,3-c]pyridin-4-yl)phenoxy)cyclobutyl)(methyl)amino)methyl)piperidin-1-yl)pyridazine-3-carboxamide]		
	CCS(=O)(=O)c1ccc(Oc2cc(F)c(CCC3CCN(c4ccc(C(=O)N[C@H]5CC[C@H](Oc6ccc(C#N)c(Cl)c6)CC5)nn4)CC3)cc2F)c(-c2cn(C)c(=O)c3[nH]ccc23)c1 [I-59]	500 to 1500	
50 to 500	Cn1cc(-c2cc(C(C)(C)O)ccc2Oc2c(F)cc(CCOC3CCN(c4ccc(C(=O)N[C@H]5CC[C@H](Oc6ccc(C#N)c(Cl)c6)CC5)nn4)CC3)cc2F)c2cc[nH]c2c1=O [I-109]		
50 to 500	CCS(=O)(=O)c1ccc(Oc2cccc(CCCC3CCN(c4ccc(C(=O)N[C@H]5CC[C@H](Oc6ccc(C#N)c(Cl)c6)CC5)nn4)CC3)c2F)c(-c2cn(C)c(=O)c3[nH]ccc23)c1 [I-52]		
50 to 500	CCS(=O)(=O)c1ccc(Oc2cccc(CCC3CCN(c4ccc(C(=O)N[C@H]5CC[C@H](Oc6ccc(C#N)c(Cl)c6)CC5)nn4)CC3)c2F)c(-c2cn(C)c(=O)c3[nH]ccc23)c1 [I-51]		
	CCS(=O)(=O)c1ccc(Oc2cccc(CCCOC3CC4(C3)CN(c3ccc(C(=O)N[C@H]5CC[C@H](Oc6ccc(C#N)c(Cl)c6)CC5)nn3)C4)c2F)c(-c2cn(C)c(=O)c3[nH]ccc23)c1 [I-46]	< 500	
	Cn1cc(-c2cc(C(C)(C)O)ccc2Oc2ccc(OC3CN(c4ccc(C(=O)N[C@H]5CC[C@H](Oc6ccc(C#N)c(Cl)c6)CC5)nn4)C3)cc2)c2cc[nH]c2c1=O [I-95, N-[4-(3-chloro-4-cyano-phenoxy)cyclohexyl]-6-[3-[4-[4-(1-hydroxy-1-methyl-ethyl)-2-(6-methyl-7-oxo-1H-pyrrolo[2,3-c]pyridin-4-yl)phenoxy]phenoxy]azetidin-1-yl]pyridazine-3-carboxamide]	< 500	

SMILES	IC50 [2] [nM]	GI50 [1] [nM]	also measured
CCS(=O)(=O)Nc1ccc(Oc2cccc(OCCOC3CCN(c4ccc(C(=O)N[C@H]5CC[C@H](Oc6ccc(C#N)c(Cl)c6)CC5)nn4)CC3)c2)c(-c2cn(C)c(=O)c3[nH]ccc23)c1 [I-1, N-[4-(3-chloro-4-cyano-phenoxy)cyclohexyl]-6-[4-[2-[3-[4-(ethylsulfonylamino)-2-(6-methyl-7-oxo-1H-pyrrolo[2,3-c]pyridin-4-yl)phenoxy]phenoxy]ethoxy]-1-piperidyl]pyridazine-3-carboxamide]	500 to 2500	< 500	Ki (progesterone receptor): 500 to 2500 nM
